# Experimental data published in EPA's ToxValDB 9.5 (doi:10.2903/j.efsa.2009.299r).
# Legend:
# [1] = test system: Rattus norvegicus; details: for LD50: acute, mortality
# [2] = test system: Pimephales promelas; details: chronic/long-term; duration: 33 days; growth
# [3] = test system: Colinus virginianus; details: for LC50: diet
# [4] = test system: Mus musculus; details: chronic; duration: 78 weeks; oral; diet; histopathology: neoplastic
# [5] = test system: Oncorhynchus mykiss; details: acute; duration: 96 hours; mortality
# [6] = test system: Bibionidae; details: chronic/long-term; duration: 28 days; other
# [7] = test system: Folsomia candida; details: chronic/long-term; duration: 28 days
# [8] = test system: Tagia sp.
# [9] = test system: Daphnia magna
# [10] = test system: Apis mellifera; details: acute, mortality
# [11] = test system: Oryctolagus sp.
# [12] = test system: Canidae; details: chronic; duration: 2 years; oral; Dog Other; body weight
smiles,measurement,setting,value
CS(=O)c1cc(C(F)(F)F)cnc1C(=O)O (centres undefined),LD50,[1]; oral,> 5000 mg/kg-day
O=C(O)c1ncc(C(F)(F)F)cc1Cl [3-Chloro-5-(trifluoromethyl)pyridine-2-carboxylic acid],LD50,[1]; oral,5000 mg/kg-day
O=C(O)c1ncc(C(F)(F)F)cc1S(=O)(=O)O [3-Sulfo-5-trifluoromethyl pyridine-2-carboxylic acid],LD50,[1]; oral,> 5000 mg/kg-day
O=C(NCc1ncc(C(F)(F)F)cc1Cl)c1c(Cl)cccc1Cl [Fluopicolide],NOEC,[2],0.155 mg/L
same,LC50,"[3]; acute, oral, mortality",> 1740 mg/kg-day
same,LD50,"[3]; acute, oral, mortality",> 2250 mg/kg-day
same,NOEC,[3]; reproduction developmental,88.9 mg/kg-day
same,NOAEL,[4],7.9 mg/kg-day
same,LC50,[5],0.36 µg/mL
same,NOEC,[6],49 mg/kg
same,NOEC,[7],31.2 mg/kg
same,LC50,"[8]; acute, duration: 14 days, mortality",> 500 mg/kg
same,NOEC,"[8]; chronic/long-term, duration: 28 days, growth",62.5 mg/kg
same,LD50,[1]; oral,> 5000 mg/kg-day
same,NOAEL,"[1]; chronic, duration: 2 years, histopathology: nonneoplastic",8.4 mg/kg-day
same,NOAEL,"[1]; short-term, duration: 28 days, oral, body weight",17.7 mg/kg-day
same,NOAEL,"[1]; subchronic, duration: 90 days, oral, organ weight",7.4 mg/kg-day
same,LC50,"[9]; acute, duration: 48 hours, mortality",> 1.8 µg/mL
same,NOEC,"[9]; chronic/long-term, duration: 21 days, reproduction",0.37 mg/L
same,LD50,[10]; dermal,> 100 µg/piece
same,LD50,"[10]; oral, unspecified",> 241 µg/piece
same,NOAEL,"[11]; developmental, development",20 mg/kg-day
same,NOEL,"[11]; developmental, development",20 mg/kg-day
"NC(=O)c1c(Cl)cccc1Cl [2,6-Dichlorobenzamide]",LC50,"[3]; acute, oral, mortality",1170 mg/kg-day
same,LD50,"[1]; oral, F",500 mg/kg-day
same,LD50,"[1]; oral, M",2000 mg/kg-day
same,NOAEL,"[1]; chronic, duration: 2 years, oral, histopathology: nonneoplastic",5.7 mg/kg-day
same,NOAEL,"[11]; reproduction developmental, body weight",30 mg/kg-day
same,NOAEL,[12],4.5 mg/kg-day
